Columns and labels:
Format in all cases: functional
Conditions in all cases: Homo sapiens
[1] = system: RXF 393; assay: In vitro growth inhibition of compound was determined against RXF393 cell lines of Renal cancer
[2] = system: SF-295; assay: In vitro growth inhibition of compound was determined against SF-295 cell lines of CNS cancer
[3] = system: ACHN; assay: In vitro growth inhibition of compound was determined against ACHN cell lines of Renal cancer
[4] = system: NCI-H522; assay: In vitro growth inhibition of compound was determined against NCI-H522 cell lines of non-small cell lung cancer
[5] = system: HCT-15; assay: In vitro growth inhibition of compound was determined against HCT-15 cell lines of colon cancer
[6] = system: K562; assay: In vitro growth inhibition of compound was determined against K-562 cell lines of Leukemia
[7] = system: RPMI-8226; assay: In vitro growth inhibition of compound was determined against RPMI-8226 cell lines of Leukemia
[8] = system: OVCAR-8; assay: In vitro growth inhibition of compound was determined against OVCAR-8 cell lines of Ovarian cancer
[9] = system: NCI/ADR-RES; assay: In vitro growth inhibition of compound was determined against NCI/ADR-RES cell lines of Breast cancer
[10] = system: SR; assay: In vitro growth inhibition of compound was determined against SR cell lines of Leukemia
[11] = system: KM12; assay: In vitro growth inhibition of compound was determined against KM12 cell lines of colon cancer
[12] = system: MDA-MB-231; assay: In vitro growth inhibition of compound was determined against MDA-MB-231/ATCC cell lines of Breast cancer
[13] = system: SNB-75; assay: In vitro growth inhibition of compound was determined against SNB-75 cell lines of CNS cancer
[14] = system: HL-60; assay: In vitro growth inhibition of compound was determined against HL-60(TB) cell lines of Leukemia
[15] = system: A549; assay: In vitro growth inhibition of compound was determined against A549/ATCC cell lines of non-small cell lung cancer
[16] = system: HCC 2998; assay: In vitro growth inhibition of compound was determined against HCC2998 cell lines of colon cancer
[17] = system: OVCAR-4; assay: In vitro growth inhibition of compound was determined against OVCAR-4 cell lines of Ovarian cancer
[18] = system: MCF7; assay: In vitro growth inhibition of compound was determined against MCF-7 cell lines of Breast cancer
[19] = system: HCT-116; assay: In vitro growth inhibition of compound was determined against HCT116 cell lines of colon cancer
[20] = system: M14; assay: In vitro growth inhibition of compound was determined against M14 cell lines of Melanoma
[21] = system: 786-0; assay: In vitro growth inhibition of compound was determined against […] cell lines of Renal cancer
[22] = system: COLO 205; assay: In vitro growth inhibition of compound was determined against COLO-205 cell lines of colon cancer
[23] = system: LOX IMVI; assay: In vitro growth inhibition of compound was determined against LOX IMVI cell lines of Melanoma
[24] = system: MDA-MB-435; assay: In vitro growth inhibition of compound was determined against MDA-MB-435 cell lines of Breast cancer
[25] = system: SK-MEL-5; assay: In vitro growth inhibition of compound was determined against SK-MEL-5 cell lines of Melanoma
[26] = system: MOLT-4; assay: In vitro growth inhibition of compound was determined against MOLT-4 cell lines of Leukemia
[27] = system: TK-10; assay: In vitro growth inhibition of compound was determined against TK-10 cell lines of Renal cancer
[28] = system: SF-539; assay: In vitro growth inhibition of compound was determined against SF-539 cell lines of CNS cancer
[29] = system: Malme-3M; assay: In vitro growth inhibition of compound was determined against MALME-3M cell lines of Melanoma
[30] = system: UO-31; assay: In vitro growth inhibition of compound was determined against UO-31 cell lines of Renal cancer
[31] = system: DU-145; assay: In vitro growth inhibition of compound was determined against DU-145 cell lines of Prostate cancer
[32] = system: SN12C; assay: In vitro growth inhibition of compound was determined against SN12C cell lines of Renal cancer
[33] = system: IGROV-1; assay: In vitro growth inhibition of compound was determined against IGROVI cell lines of Ovarian cancer
[34] = system: BT-549; assay: In vitro growth inhibition of compound was determined against BT-549 cell lines of Breast cancer
[35] = system: PC-3; assay: In vitro growth inhibition of compound was determined against PC-3 cell lines of Prostate cancer
[36] = system: OVCAR-3; assay: In vitro growth inhibition of compound was determined against OVCAR-3 cell lines of Ovarian cancer
[37] = system: Hs-578T; assay: In vitro growth inhibition of compound was determined against Hs 578.T cell lines of Breast cancer
[38] = system: HOP-92; assay: In vitro growth inhibition of compound was determined against HOP-92 cell lines of non-small cell lung cancer
[39] = system: SK-MEL-28; assay: In vitro growth inhibition of compound was determined against SK-MEL-28 cell lines of Melanoma
[40] = system: SF-268; assay: In vitro growth inhibition of compound was determined against SF-268 cell lines of CNS cancer
[41] = system: CAKI-1; assay: In vitro growth inhibition of compound was determined against CAKI-1 cell lines of Renal cancer
[42] = system: NCI-H226; assay: In vitro growth inhibition of compound was determined against NCI-H226 cell lines of non-small cell lung cancer
[43] = system: U-251; assay: In vitro growth inhibition of compound was determined against U251 cell lines of CNS cancer
[44] = system: UACC-257; assay: In vitro growth inhibition of compound was determined against UACC-257 cell lines of Melanoma
[45] = system: HOP-62; assay: In vitro growth inhibition of compound was determined against HOP-62 cell lines of non-small cell lung cancer
[46] = system: CCRF-CEM; assay: In vitro growth inhibition of compound was determined against CCRF-CEM cell lines of Leukemia
[47] = system: SW-620; assay: In vitro growth inhibition of compound was determined against SW-620 cell lines of colon cancer
[48] = system: MDA-N; assay: In vitro growth inhibition of compound was determined against MDA-Ncell lines of Breast cancer

`CCN(CC)C(=S)SS(=O)(=O)c1ccc(N)cc1` was tested, and the GI50 [1] was 22 µM, the GI50 [2] was greater than 100 µM and the GI50 [3] was 61 µM. For the same compound, the GI50 [4] was 1000 nM, the GI50 [5] was greater than 100 µM and the GI50 [6] was 34 µM. It also gave a GI50 [7] of 22 µM, a GI50 [8] greater than 100 µM and a GI50 [9] greater than 100 µM. For the same compound, the GI50 [10] was 3000 nM, the GI50 [11] was 22 µM and the GI50 [12] was greater than 100 µM. It also gave a GI50 [13] of 48 µM, a GI50 [14] greater than 100 µM and a GI50 [15] of 7 µM. It also gave a GI50 [16] of 8 µM, a GI50 [17] greater than 100 µM and a GI50 [18] of 5 µM. It also gave a GI50 [19] greater than 100 µM, a GI50 [20] of 63 µM and a GI50 [21] of 3000 nM. For the same compound, the GI50 [22] was greater than 100 µM, the GI50 [23] was greater than 100 µM and the GI50 [24] was greater than 100 µM. For the same compound, the GI50 [25] was 13 µM, the GI50 [26] was 2000 nM and the GI50 [27] was greater than 100 µM. It also gave a GI50 [28] of 21 µM, a GI50 [29] of 46 µM and a GI50 [30] of 80 µM. The GI50 [31] was greater than 100 µM, the GI50 [32] was greater than 100 µM and the GI50 [33] was 5 µM. It also gave a GI50 [34] greater than 100 µM, a GI50 [35] of 90 µM and a GI50 [36] greater than 100 µM. It also gave a GI50 [37] of 83 µM, a GI50 [38] of 5 µM and a GI50 [39] greater than 100 µM. For the same compound, the GI50 [40] was greater than 100 µM, the GI50 [41] was 22 µM and the GI50 [42] was 98 µM. For the same compound, the GI50 [43] was greater than 100 µM, the GI50 [44] was greater than 100 µM and the GI50 [45] was 33 µM. The GI50 [46] was greater than 100 µM, the GI50 [47] was greater than 100 µM and the GI50 [48] was 65 µM.

From ChEMBL document CHEMBL1133283, “Arylsulfonyl-N,N-diethyl-dithiocarbamates: a novel class of antitumor agents” (Bioorg Med Chem Lett, 2000)
